Patent publication US20250345277A1, “Ionizable Liposome, Preparation Thereof, and Application Thereof in Gene Delivery” (MAXIRNA (ZHEJIANG) TECHNOLOGY CO. LTD., priority 2021, published 2025)
One block for each compound: values may come before it.

Key:
[1] = Size and polydispersity index PDI of lipid nanoparticles (Malvern Zetasizer Nano ZS); format: physicochemical; details: LNP ionizable lipid/DOPE/cholesterol/DSPE-PEG2000 35/16/46.5/2.5 mol% encapsulating EGFP mRNA; for Particle Size: in nm (unit assumed)
In short: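 LNPs of ionizable lipid/DOPE/cholesterol/DSPE-PEG2000 (35/16/46.5/2.5 mol %) encapsulating EGFP mRNA, made by microfluidic mixing (ethanol lipid:citrate pH 6.1 aqueous 1:3 by volume; lipid:mRNA ~10:1 w/w). Buffer-exchanged into DPBS, 0.2 μm filtered. Size and PDI by dynamic light scattering at […] backscatter angle.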

[2] = Entrapment efficiency of LNP preparation encapsulating EGFP mRNA; format: physicochemical; details: LNP ionizable lipid/DOPE/cholesterol/DSPE-PEG2000 35/16/46.5/2.5 mol% encapsulating EGFP mRNA
In short: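 LNPs of ionizable lipid/DOPE/cholesterol/DSPE-PEG2000 (35/16/46.5/2.5 mol %) made by microfluidic mixing of ethanol lipids with EGFP mRNA in 20 mM citrate pH 6.1 (1:3 by volume), lipid:mRNA about 10:1 by weight. Buffer exchanged to DPBS by ultrafiltration, then 0.2 μm filtered; mRNA 0.002–0.5 mg/mL.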

DC2.4 cells = assay: In vitro transfection of DC2.4 cells with EGFP mRNA LNP preparation (flow cytometry); format: cell-based, mouse; details: for Cell Viability / Positive Rate (EGFP) / Fluorescence Intensity: DC2.4 cells; for Cell Viability / Positive Rate (EGFP): EGFP mRNA LNP, 200 ng mRNA per well, flow cytometry; for Fluorescence Intensity: EGFP mRNA expression level, normalized based on the sample with the highest fluorescence intensity
In short: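 DC2.4 is a mouse bone marrow-derived dendritic cell line, grown adherent at 37 °C, 5% CO2 and passaged with trypsin at 80-90% confluence. The EGFP mRNA LNP preparation was diluted in serum-free Opti-MEM to 1 μg/ml mRNA for transfection.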

Compound: CCCCCCCCCCC(O)CN(CCOCCOCCOCCN(CCOCCOCCOCCN(CC(O)CCCCCCCCCC)CC(O)CCCCCCCCCC)CCN1CCN(CCOCCOCCOCCN(CC(O)CCCCCCCCCC)CC(O)CCCCCCCCCC)CC1)CC(O)CCCCCCCCCC [D-C12]
- PDI [1]: 0.073
- Particle Size [1]: 90.5
- Entrapment Efficiency [2]: 91.80%
- Cell Viability (DC2.4 cells): 90.8%
- Positive Rate (EGFP) (DC2.4 cells): 65.6%
- Fluorescence Intensity (DC2.4 cells): 0.07

Compound: CCCCCCCCCCCCCCC(O)CN(CCOCCOCCOCCN(CCOCCOCCOCCN(CC(O)CCCCCCCCCCCCCC)CC(O)CCCCCCCCCCCCCC)CCN1CCN(CCOCCOCCOCCN(CC(O)CCCCCCCCCCCCCC)CC(O)CCCCCCCCCCCCCC)CC1)CC(O)CCCCCCCCCCCCCC [D-C16]
- PDI [1]: 0.117
- Particle Size [1]: 91.6
- Entrapment Efficiency [2]: 86.56%
- Cell Viability (DC2.4 cells): 91.1%
- Positive Rate (EGFP) (DC2.4 cells): 71.7%
- Fluorescence Intensity (DC2.4 cells): 0.82

Compound: CCCCCCCCCCCCCCCCC(O)CC(CCOCCOCCOCCN(CCOCCOCCOCCN(CC(O)CCCCCCCCCCCCCCCC)CC(O)CCCCCCCCCCCCCCCC)CCN1CCN(CCOCCOCCOCCN(CC(O)CCCCCCCCCCCCCCCC)CC(O)CCCCCCCCCCCCCCCC)CC1)CC(O)CCCCCCCCCCCCCCCC [D-C18]
- PDI [1]: 0.105
- Particle Size [1]: 103.0
- Entrapment Efficiency [2]: 88.54%
- Cell Viability (DC2.4 cells): 81.5%
- Positive Rate (EGFP) (DC2.4 cells): 64.4%
- Fluorescence Intensity (DC2.4 cells): 0.45

Compound: CCCCCCCCCCCCC(O)CN(CCN(CCN1CCN(C)CC1)CCN(CC(O)CCCCCCCCCCCC)CC(O)CCCCCCCCCCCC)CC(O)CCCCCCCCCCCC (centres unmarked) [E-C14]
- PDI [1]: 0.119
- Particle Size [1]: 85.2
- Entrapment Efficiency [2]: 85.62%
- Cell Viability (DC2.4 cells): >99.0%
- Positive Rate (EGFP) (DC2.4 cells): 84.3%
- Fluorescence Intensity (DC2.4 cells): 0.45

Compound: CCCCCCCCCCCCC(O)CN(CCOCCN(CCOCCN(CC(O)CCCCCCCCCCCC)CC(O)CCCCCCCCCCCC)CCN1CCN(C)CC1)CC(O)CCCCCCCCCCCC (centres unmarked) [F-C14]
- PDI [1]: 0.131
- Particle Size [1]: 82.4
- Entrapment Efficiency [2]: 95.21%
- Cell Viability (DC2.4 cells): 93.2%
- Positive Rate (EGFP) (DC2.4 cells): 73.5%
- Fluorescence Intensity (DC2.4 cells): 0.33

Compound: CCCCCCCCCCCCC(O)CN(CCOCCOCCN(CCOCCOCCN(CC(O)CCCCCCCCCCCC)CC(O)CCCCCCCCCCCC)CCN1CCN(C)CC1)CC(O)CCCCCCCCCCCC (centres unmarked) [G-C14]
- PDI [1]: 0.180
- Particle Size [1]: 86.4
- Entrapment Efficiency [2]: 84.02%
- Cell Viability (DC2.4 cells): >99.0%
- Positive Rate (EGFP) (DC2.4 cells): 67.5%
- Fluorescence Intensity (DC2.4 cells): 0.30

Compound: CCCCCCCCCCCCC(O)CN(CCOCCOCCOCCN(CCOCCOCCOCCN(CC(O)CCCCCCCCCCCC)CC(O)CCCCCCCCCCCC)CCN1CCN(C)CC1)CC(O)CCCCCCCCCCCC (centres unmarked) [H-C14]
- PDI [1]: 0.099
- Particle Size [1]: 94.8
- Entrapment Efficiency [2]: 91.67%
- Cell Viability (DC2.4 cells): 91.7%
- Positive Rate (EGFP) (DC2.4 cells): 66.8%
- Fluorescence Intensity (DC2.4 cells): 0.52

Second part, led by results:

- PDI [1]: 0.173
- Particle Size [1]: 91.6
- Entrapment Efficiency [2]: 89.80%
Compound: CCCCCCCCCCC(O)CN(CCN1CCN(CCN(CCN(CC(O)CCCCCCCCCC)CC(O)CCCCCCCCCC)CCN(CC(O)CCCCCCCCCC)CC(O)CCCCCCCCCC)CC1)CC(O)CCCCCCCCCC (centres unmarked) [A-C12]
- Cell Viability (DC2.4 cells): 87.1%
- Positive Rate (EGFP) (DC2.4 cells): 73.3%
- Fluorescence Intensity (DC2.4 cells): 0.84

- PDI [1]: 0.107
- Particle Size [1]: 97.1
- Entrapment Efficiency [2]: 80.31%
Compound: CCCCCCCCCCCCC(O)CN(CCN1CCN(CCN(CCN(CC(O)CCCCCCCCCCCC)CC(O)CCCCCCCCCCCC)CCN(CC(O)CCCCCCCCCCCC)CC(O)CCCCCCCCCCCC)CC1)CC(O)CCCCCCCCCCCC (centres unmarked) [A-C14]
- Cell Viability (DC2.4 cells): 95.4%
- Positive Rate (EGFP) (DC2.4 cells): 92.3%
- Fluorescence Intensity (DC2.4 cells): 0.30

- PDI [1]: 0.183
- Particle Size [1]: 90.8
- Entrapment Efficiency [2]: 90.30%
Compound: CCCCCCCCCCCCCCC(O)CN(CCN1CCN(CCN(CCN(CC(O)CCCCCCCCCCCCCC)CC(O)CCCCCCCCCCCCCC)CCN(CC(O)CCCCCCCCCCCCCC)CC(O)CCCCCCCCCCCCCC)CC1)CC(O)CCCCCCCCCCCCCC (centres unmarked) [A-C16]
- Cell Viability (DC2.4 cells): 90.0%
- Positive Rate (EGFP) (DC2.4 cells): 66.3%
- Fluorescence Intensity (DC2.4 cells): 0.80

- PDI [1]: 0.144
- Particle Size [1]: 96.9
- Entrapment Efficiency [2]: 90.56%
Compound: CCCCCCCCCCCCCCCCC(O)CN(CCN1CCN(CCN(CCN(CC(O)CCCCCCCCCCCCCCCC)CC(O)CCCCCCCCCCCCCCCC)CCN(CC(O)CCCCCCCCCCCCCCCC)CC(O)CCCCCCCCCCCCCCCC)CC1)CC(O)CCCCCCCCCCCCCCCC (centres unmarked) [A-C18]
- Cell Viability (DC2.4 cells): 93.0%
- Positive Rate (EGFP) (DC2.4 cells): 61.9%
- Fluorescence Intensity (DC2.4 cells): 0.87

- PDI [1]: 0.147
- Particle Size [1]: 102.9
- Entrapment Efficiency [2]: 89.93%
Compound: CCCCCCCCCCC(O)CN(CCOCCN(CCOCCN(CC(O)CCCCCCCCCC)CC(O)CCCCCCCCCC)CCN1CCN(CCOCCN(CC(O)CCCCCCCCCC)CC(O)CCCCCCCCCC)CC1)CC(O)CCCCCCCCCC (centres unmarked) [B-C12, 19-(2-(4-(2-(2-(di(2-hydroxydodecyl)amino)ethoxy)ethyl)piperazin-1-yl)ethyl)-13, 15-bis(2-hydroxydodecyl)-16,22-dioxa-13,19,25-triazaheptakadecane-11,27-diol]
- Cell Viability (DC2.4 cells): 85.0%
- Positive Rate (EGFP) (DC2.4 cells): 83.0%
- Fluorescence Intensity (DC2.4 cells): 0.20

- PDI [1]: 0.133
- Particle Size [1]: 90.5
- Entrapment Efficiency [2]: 95.21%
Compound: CCCCCCCCCCCCC(O)CN(CCOCCN(CCOCCN(CC(O)CCCCCCCCCCCC)CC(O)CCCCCCCCCCCC)CCN1CCN(CCOCCN(CC(O)CCCCCCCCCCCC)CC(O)CCCCCCCCCCCC)CC1)CC(O)CCCCCCCCCCCC (centres unmarked) [B-C14]
- cell viability by flow cytometry (FIG. 1) (DC2.4 cells; DC2.4, after in vitro transfection): high viability
- transfection efficiency (FIG. 2) (DC2.4 cells; DC2.4, in the absence of AopE4): high transfection efficiency
- Cell Viability (DC2.4 cells): 95.0%
- Positive Rate (EGFP) (DC2.4 cells): 90.2%
- Fluorescence Intensity (DC2.4 cells): 1.00

- PDI [1]: 0.070
- Particle Size [1]: 92.5
- Entrapment Efficiency [2]: 95.24%
Compound: CCCCCCCCCCC(O)CN(CCOCCOCCN(CCOCCOCCN(CC(O)CCCCCCCCCC)CC(O)CCCCCCCCCC)CCN1CCN(CCOCCOCCN(CC(O)CCCCCCCCCC)CC(O)CCCCCCCCCC)CC1)CC(O)CCCCCCCCCC (centres unmarked) [C-C12]
- Cell Viability (DC2.4 cells): 94.0%
- Positive Rate (EGFP) (DC2.4 cells): 64.4%
- Fluorescence Intensity (DC2.4 cells): 0.71

- PDI [1]: 0.168
- Particle Size [1]: 97.2
- Entrapment Efficiency [2]: 92.36%
Compound: CCCCCCCCCCCCC(O)CN(CCOCCOCCOCCN(CCOCCOCCOCCN(CC(O)CCCCCCCCCCCC)CC(O)CCCCCCCCCCCC)CCN1CCN(CCOCCOCCOCCN(CC(O)CCCCCCCCCCCC)CC(O)CCCCCCCCCCCC)CC1)CC(O)CCCCCCCCCCCC [D-C14]
- Cell Viability (DC2.4 cells): 91.3%
- Positive Rate (EGFP) (DC2.4 cells): 96.7%
- Fluorescence Intensity (DC2.4 cells): 0.95
